In patent US5698529A, “Chemotherapeutic compositions” (Supratek Pharma, Inc., priority 1996, dated 1997) one finds IC50 data, which are given here for 3 compounds.

In brackets after ≈: the same amount, converted by molar mass. Where two headings read alike, the source gives them in different places.

For orientation: IC50 means the midpoint of a concentration-inhibition curve.

The subject of one experiment is SKVO3 cells. The experiment is described as follows: cells. In kind it is cell-based. The note with it: Homo sapiens. The source says:
(§1) The antineoplastic agent vinblastine is incorporated into the block copolymer mixture described in Example 3.
(§2) The antineoplastic agent mitomycin C is incorporated into the block copolymer mixture described in Example 3.
(§3) The antineoplastic agent methotrexate is incorporated into the block copolymer mixture described in Example 3.
(§4) The antineoplastic agent daunorubicin is incorporated into the block copolymer mixture described in Example 3.

In a further experiment the test system is SKVLB cells. The experiment is described as follows: cells. In kind it is cell-based. The note with it: Homo sapiens.
From the text: as §1, §2, §3, §4

Where [1] appears, read: SKVO3, drug-sensitive, read-out: IC50.

`CN(Cc1cnc2nc(N)nc(N)c2n1)c1ccc(C(=O)N[C@@H](CCC(=O)O)C(=O)O)cc1` [free methotrexate, methotrexate]: the IC50 with SKVO3 cells (setting [1]) stood at 1.09 µg/mL (≈ 2.4 µM).

Take `CO[C@@]12[C@H](COC(N)=O)C3=C(C(=O)C(C)=C(N)C3=O)N1C[C@@H]1N[C@@H]12` [free mitomycin, mitomycin C]: the IC50 in the experiment on SKVLB cells is 1.12 µg/mL (≈ 3.35 µM); in the experiment on SKVO3 cells, 0.32 µg/mL (≈ 0.957 µM).

As to `CC[C@]1(O)C[C@@H]2CN(CCc3c([nH]c4ccccc34)[C@@](C(=O)OC)(c3cc4c(cc3OC)N(C)[C@H]3[C@@](O)(C(=O)OC)[C@H](OC(C)=O)[C@]5(CC)C=CCN6CC[C@]43[C@@H]65)C2)C1` [free vinblastine, vinblastine], the IC50 with SKVLB cells amounted to 0.615 µg/mL (≈ 0.758 µM); in the experiment on SKVO3 cells (setting [1]), 0.095 µg/mL (≈ 0.117 µM).
